Laboratory results reported in ChEMBL document CHEMBL1201862, “PubChem BioAssay data set” (2004).
The source made the active and inactive calls.

Tests used:
[1] = molecular target: T1, Adenosylmethionine-8-amino-7-oxononanoate aminotransferase (Mycobacterium tuberculosis, UniProt P9WQ81); experiment: Mycobacterium tuberculosis BioA enzyme inhibitor Measured in Biochemical System Using Plate Reader - 2163-02_Inhibitor_Dose_CherryPick_Activity.; format: functional, Mycobacterium tuberculosis UT205
T1 sequence (P9WQ81 whole entry): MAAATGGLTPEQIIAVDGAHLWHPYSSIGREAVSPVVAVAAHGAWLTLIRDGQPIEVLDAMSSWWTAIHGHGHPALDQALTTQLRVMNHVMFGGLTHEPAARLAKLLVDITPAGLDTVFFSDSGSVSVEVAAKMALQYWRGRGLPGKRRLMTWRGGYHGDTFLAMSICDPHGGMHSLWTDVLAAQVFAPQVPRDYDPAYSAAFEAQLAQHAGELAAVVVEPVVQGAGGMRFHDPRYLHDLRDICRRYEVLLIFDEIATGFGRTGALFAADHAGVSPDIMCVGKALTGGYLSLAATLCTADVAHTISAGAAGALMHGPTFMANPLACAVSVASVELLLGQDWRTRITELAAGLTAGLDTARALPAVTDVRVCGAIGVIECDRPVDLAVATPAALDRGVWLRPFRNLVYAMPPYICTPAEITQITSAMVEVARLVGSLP

[2] = inhibitors of intracellular T. cruzi replication, confirmation, NIH3T3 host cells, beta-gal luminescence (AID 2044); format: functional, cell-based;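 note: intracellular parasites grown in NIH/3T3 mouse fibroblasts as host cells; luminescent beta-galactosidase reporter signal from transgenic T. cruzi replicating inside host cells; inhibitors lower the luminescence signal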
[3] = cytotoxicity toward NIH3T3 fibroblasts, dose response, counter-screen, cell-based, ATP luminescence, mouse fibroblasts (AID 2010); format: functional;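 note: cells exposed to compound for about 90 hours before reading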
INS1 = experiment: beta cell apoptosis inhibitors, cytokine rescue, dose response, luminescence, retest (AID 449756); format: functional, cell-based; conditions: Rattus norvegicus;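 note: cell death triggered by IL-1 beta plus TNF-alpha plus IFN-gamma mixture; protective hits raise ATP signal compared with cytokine alone wells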
[4] = THP-1 cell cytotoxicity, dose response, cytotoxicity control for Vif-APOBEC3G degradation inhibitor project, THP-1 cells (AID 1117359); format: functional; conditions: Human immunodeficiency virus 1, THP-1
Beta-galactosidase = Beta-galactosidase (Escherichia coli, UniProt Q8VNN2); experiment: PubChem AID 485352; format: functional
Beta-galactosidase, sequence (Q8VNN2 whole entry): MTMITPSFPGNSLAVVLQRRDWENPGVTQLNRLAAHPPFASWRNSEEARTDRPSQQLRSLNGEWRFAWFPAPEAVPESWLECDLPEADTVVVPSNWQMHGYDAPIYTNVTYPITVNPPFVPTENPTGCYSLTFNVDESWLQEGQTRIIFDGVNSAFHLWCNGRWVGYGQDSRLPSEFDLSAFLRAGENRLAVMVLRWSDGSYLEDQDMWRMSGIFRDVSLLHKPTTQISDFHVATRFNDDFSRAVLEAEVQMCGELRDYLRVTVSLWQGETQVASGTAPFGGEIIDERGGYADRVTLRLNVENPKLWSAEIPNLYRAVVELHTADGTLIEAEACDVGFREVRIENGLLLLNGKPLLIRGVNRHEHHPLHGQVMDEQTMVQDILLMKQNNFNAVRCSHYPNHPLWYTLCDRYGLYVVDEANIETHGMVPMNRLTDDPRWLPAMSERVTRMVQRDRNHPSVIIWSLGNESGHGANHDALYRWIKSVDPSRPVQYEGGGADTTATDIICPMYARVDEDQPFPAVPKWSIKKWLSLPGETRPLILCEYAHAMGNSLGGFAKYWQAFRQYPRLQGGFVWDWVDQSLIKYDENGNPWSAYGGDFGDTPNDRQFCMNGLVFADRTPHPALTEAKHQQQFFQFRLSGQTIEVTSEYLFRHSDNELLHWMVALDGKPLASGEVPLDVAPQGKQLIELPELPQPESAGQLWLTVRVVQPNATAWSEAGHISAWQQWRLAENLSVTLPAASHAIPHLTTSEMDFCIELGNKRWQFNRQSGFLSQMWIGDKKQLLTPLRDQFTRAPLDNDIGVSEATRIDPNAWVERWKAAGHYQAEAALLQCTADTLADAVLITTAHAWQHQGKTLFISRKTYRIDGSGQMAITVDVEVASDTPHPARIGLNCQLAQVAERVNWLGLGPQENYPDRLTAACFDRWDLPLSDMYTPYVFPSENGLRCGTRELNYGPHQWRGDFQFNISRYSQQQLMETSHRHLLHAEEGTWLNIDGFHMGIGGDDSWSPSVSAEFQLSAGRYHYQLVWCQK

[5] = molecular target: T2, Type-1 angiotensin II receptor (Homo sapiens, UniProt P30556); experiment: AT1 receptor antagonists, dose response, selectivity assay for APJ receptor antagonist project, cell-based, uHTS hits (AID 463214); format: functional;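 note: antagonist potency against angiotensin II stimulated AT1 response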
T2 sequence (P30556 whole entry): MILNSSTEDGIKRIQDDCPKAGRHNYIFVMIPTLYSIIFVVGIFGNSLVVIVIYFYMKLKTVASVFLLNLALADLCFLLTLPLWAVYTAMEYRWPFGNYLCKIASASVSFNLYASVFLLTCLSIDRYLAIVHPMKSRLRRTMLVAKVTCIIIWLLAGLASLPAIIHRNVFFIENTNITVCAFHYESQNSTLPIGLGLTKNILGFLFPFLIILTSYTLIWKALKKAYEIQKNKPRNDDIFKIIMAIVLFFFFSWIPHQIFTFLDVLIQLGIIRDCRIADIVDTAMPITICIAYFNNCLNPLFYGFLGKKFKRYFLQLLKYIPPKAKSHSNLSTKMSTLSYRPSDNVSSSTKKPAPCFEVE

[6] = system: Streptococcus sp. 'group A'; experiment: growth inhibition of control SK(-) GAS strain, dose response, counter-screen for streptokinase expression inhibitor project, luminescence, kanamycin, BacTiterGlo, confirmation (AID 1900); format: functional, organism-based
Streptokinase A = molecular target: T3, Streptokinase A (Streptococcus pyogenes serotype M1, UniProt P10520); experiment: S. pyogenes streptokinase expression inhibitors, potency, dose response, plasminogen activation absorbance, OD405 (AID 1914); format: functional, Streptococcus pyogenes M1 GAS;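 note: secreted streptokinase activity via plasminogen activation per viability signal from cell pellet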
T3 sequence (P10520 whole entry): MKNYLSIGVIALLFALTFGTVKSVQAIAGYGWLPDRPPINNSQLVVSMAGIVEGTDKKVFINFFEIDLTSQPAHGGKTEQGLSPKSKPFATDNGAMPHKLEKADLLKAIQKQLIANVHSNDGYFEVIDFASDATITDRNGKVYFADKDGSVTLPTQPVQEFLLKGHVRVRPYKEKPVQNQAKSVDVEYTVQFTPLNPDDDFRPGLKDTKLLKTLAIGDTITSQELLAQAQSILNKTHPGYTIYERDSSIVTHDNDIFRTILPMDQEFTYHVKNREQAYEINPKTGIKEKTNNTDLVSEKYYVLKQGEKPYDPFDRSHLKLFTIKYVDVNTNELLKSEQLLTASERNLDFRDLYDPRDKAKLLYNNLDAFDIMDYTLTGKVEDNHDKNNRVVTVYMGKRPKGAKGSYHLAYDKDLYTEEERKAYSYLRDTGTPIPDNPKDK

Streptococcus = experiment: Group A Streptococcus viability loss, dose response, counter-screen for streptokinase expression inhibitor project, luminescence, BacTiterGlo (AID 1915); format: functional, organism-based;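 note: potency for reduction of bacterial viability or growth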
Caspase-3 [7] = molecular target: T4, Caspase-3 (Homo sapiens, UniProt P42574); format: functional
T4 sequence (P42574 whole entry): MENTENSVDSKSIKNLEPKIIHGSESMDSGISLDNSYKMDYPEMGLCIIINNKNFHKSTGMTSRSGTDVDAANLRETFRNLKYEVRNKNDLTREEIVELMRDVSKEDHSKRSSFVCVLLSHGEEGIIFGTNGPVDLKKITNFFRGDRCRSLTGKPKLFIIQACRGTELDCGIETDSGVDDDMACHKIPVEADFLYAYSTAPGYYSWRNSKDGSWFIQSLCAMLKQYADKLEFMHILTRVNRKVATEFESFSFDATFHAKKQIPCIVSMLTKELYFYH

[8] = molecular target: T5, Sentrin-specific protease 7 (Homo sapiens, UniProt Q9BQF6); format: functional;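 note: Luminescence-based dose-response confirmation of ultra-high-throughput screening hits, measuring inhibition of SENP7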
T5 sequence (Q9BQF6 whole entry): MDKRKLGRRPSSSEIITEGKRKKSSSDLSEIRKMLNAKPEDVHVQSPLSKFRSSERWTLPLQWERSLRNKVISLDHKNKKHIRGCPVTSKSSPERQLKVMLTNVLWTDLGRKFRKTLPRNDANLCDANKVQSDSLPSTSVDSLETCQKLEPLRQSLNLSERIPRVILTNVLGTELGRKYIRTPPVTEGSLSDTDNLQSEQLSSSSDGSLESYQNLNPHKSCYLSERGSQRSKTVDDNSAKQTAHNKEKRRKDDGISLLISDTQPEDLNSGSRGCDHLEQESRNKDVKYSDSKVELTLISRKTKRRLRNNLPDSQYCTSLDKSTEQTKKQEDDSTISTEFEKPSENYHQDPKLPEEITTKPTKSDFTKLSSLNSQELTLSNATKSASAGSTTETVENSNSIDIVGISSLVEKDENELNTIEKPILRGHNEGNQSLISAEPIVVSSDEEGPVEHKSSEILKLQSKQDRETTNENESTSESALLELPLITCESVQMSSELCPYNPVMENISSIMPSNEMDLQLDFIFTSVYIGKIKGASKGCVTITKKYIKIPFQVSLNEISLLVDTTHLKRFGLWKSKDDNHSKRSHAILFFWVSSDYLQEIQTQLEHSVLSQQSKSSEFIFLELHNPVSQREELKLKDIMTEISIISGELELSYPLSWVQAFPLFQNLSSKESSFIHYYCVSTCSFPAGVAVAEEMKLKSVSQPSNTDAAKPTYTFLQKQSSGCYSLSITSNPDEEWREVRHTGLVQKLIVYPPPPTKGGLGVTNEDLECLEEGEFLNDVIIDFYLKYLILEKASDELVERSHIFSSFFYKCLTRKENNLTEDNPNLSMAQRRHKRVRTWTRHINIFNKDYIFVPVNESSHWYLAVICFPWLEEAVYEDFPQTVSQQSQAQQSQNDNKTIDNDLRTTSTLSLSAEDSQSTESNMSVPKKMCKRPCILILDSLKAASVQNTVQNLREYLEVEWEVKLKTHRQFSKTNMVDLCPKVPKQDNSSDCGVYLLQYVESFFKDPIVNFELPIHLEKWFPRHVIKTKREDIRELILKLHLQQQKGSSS

[9] = molecular target: T6, Sentrin-specific protease 6 (Homo sapiens, UniProt Q9GZR1); format: functional
T6 sequence (Q9GZR1 whole entry): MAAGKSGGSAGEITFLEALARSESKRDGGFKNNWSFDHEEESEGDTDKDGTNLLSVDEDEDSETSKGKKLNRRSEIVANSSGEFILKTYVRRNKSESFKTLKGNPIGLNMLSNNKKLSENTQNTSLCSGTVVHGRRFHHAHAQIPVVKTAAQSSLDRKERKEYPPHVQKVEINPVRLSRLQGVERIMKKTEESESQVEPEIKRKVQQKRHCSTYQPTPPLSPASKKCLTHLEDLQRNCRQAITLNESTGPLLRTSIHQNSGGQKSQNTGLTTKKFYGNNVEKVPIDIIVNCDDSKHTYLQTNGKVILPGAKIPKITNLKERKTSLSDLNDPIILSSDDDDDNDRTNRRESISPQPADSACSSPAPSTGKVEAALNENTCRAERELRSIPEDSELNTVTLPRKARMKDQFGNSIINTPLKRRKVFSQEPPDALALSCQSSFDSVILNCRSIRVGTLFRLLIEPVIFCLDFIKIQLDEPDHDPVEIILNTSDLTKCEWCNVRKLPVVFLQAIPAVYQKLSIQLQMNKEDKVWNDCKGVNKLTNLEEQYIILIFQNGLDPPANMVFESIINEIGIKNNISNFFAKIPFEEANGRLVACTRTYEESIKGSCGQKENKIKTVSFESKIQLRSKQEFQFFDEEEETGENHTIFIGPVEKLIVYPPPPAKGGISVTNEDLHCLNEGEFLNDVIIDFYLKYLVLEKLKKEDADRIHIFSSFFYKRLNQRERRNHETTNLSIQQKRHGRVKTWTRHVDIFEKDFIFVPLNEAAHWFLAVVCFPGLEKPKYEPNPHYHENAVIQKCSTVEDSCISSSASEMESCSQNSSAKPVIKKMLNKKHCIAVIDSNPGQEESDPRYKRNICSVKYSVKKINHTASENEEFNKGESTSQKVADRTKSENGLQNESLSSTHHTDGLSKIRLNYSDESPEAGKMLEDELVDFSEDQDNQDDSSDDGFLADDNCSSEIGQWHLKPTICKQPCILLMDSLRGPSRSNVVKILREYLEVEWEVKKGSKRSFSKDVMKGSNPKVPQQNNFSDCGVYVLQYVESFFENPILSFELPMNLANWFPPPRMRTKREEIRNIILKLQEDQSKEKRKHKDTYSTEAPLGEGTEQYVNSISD

[10] = molecular target: T7, Sentrin-specific protease 8 (Homo sapiens, UniProt Q96LD8); format: functional;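 note: luminescence read-out of SENP8 inhibition, dose-response confirmation following an ultra-high-throughput screen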
T7 sequence (Q96LD8 whole entry): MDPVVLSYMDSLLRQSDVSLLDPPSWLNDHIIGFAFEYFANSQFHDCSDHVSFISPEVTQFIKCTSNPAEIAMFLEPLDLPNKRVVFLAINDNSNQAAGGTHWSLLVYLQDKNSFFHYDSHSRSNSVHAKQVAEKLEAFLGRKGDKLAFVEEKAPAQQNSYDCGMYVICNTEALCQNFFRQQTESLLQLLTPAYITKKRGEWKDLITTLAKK

Caspase-3 [11] = molecular target: T4, Caspase-3; experiment: SAR Analysis of small molecule inhibitors of Sentrin-specific proteases (SENPs) using a Caspase-3 Selectivity assay. [Related pubchem assays (depositor defined):AID2540, AID2599, AID434973, AID489001]; format: functional
[12] = molecular target: T6, Sentrin-specific protease 6; experiment: SAR Analysis of small molecule inhibitors of Sentrin-specific protease 6 (SENP6) using a Luminescent assay. [Related pubchem assays (depositor defined):AID2582, AID2599]; format: functional
[13] = molecular target: T5, Sentrin-specific protease 7; experiment: SENP7 protease inhibitors, SAR follow-up, biochemical, luminescence (AID 504497); format: functional

Row | Structure (SMILES) | AC50 [1] | EC50 [2] | EC50 [3] | EC50 (cells) | other results
1 | COC(=O)c1c(C(=O)OC)c(-c2ccc(F)cc2)n2c1C[S+]([O-])C2 (stereo unspecified) | 10.3 µM (active) |  |  |  | 
2 | NC(=O)c1ccc(Oc2cccc3cccnc23)c([N+](=O)[O-])c1 | 2.3 µM (active) |  |  |  | 
3 | COc1cc(OC)c(OC)cc1CNCCc1ccc(F)cc1 |  | < 100 nM (active) | > 60 µM (not active) | 55 nM (active) | 
4 | CCOC(=O)c1ccc(-[n+]2c(-c3ccccc3)cc(-c3ccccc3)cc2-c2ccccc2)cc1.[O-][Cl+3]([O-])([O-])[O-] |  | < 100 nM (active) | > 60 µM (not active) | 47 nM (active) | AC50 (INS1): 2.02 µM (active)
5 | CCOC(=O)c1ccc(N2C(=O)c3[nH]nc(C)c3C2c2ccc(OC)cc2OC)cc1 (stereo unspecified) |  |  |  |  | CC50 [4]: > 40 µM (active)
6 | CN(C)CCN(Cc1ccco1)C(=O)c1cc2c(Cl)nc3ccccc3c2s1 |  | < 100 nM (active) | 9.5 µM (active) | 115 nM (active) | EC50 (Beta-galactosidase): > 40 µM (inactive); IC50 [5]: 33.8 µM (not active)
7 | CN(C)CCNc1ccc(-c2nn(C)c(=O)c3ccccc23)cc1[N+](=O)[O-] |  | < 100 nM (active) | > 60 µM (not active) | 62 nM (active) | 
8 | Cc1cccc(C(=O)Nc2scc(-c3ccc(Br)cc3)c2C(=O)O)c1 |  |  |  |  | EC50 [6]: 2.33 µM (active); EC50 (Streptokinase A): > 150 µM (not active); EC50 (Streptococcus): 8.14 µM (active); IC50 (Caspase-3 [7]): 5.21 µM (active); IC50 [8]: > 100 µM (inactive); IC50 [9]: 4.28 µM (active); IC50 [10]: 3.72 µM (active); IC50 (Caspase-3 [11]): 4.89 µM (active); IC50 [12]: 3.42 µM (active); IC50 [13]: 6.38 µM (active)
9 | C[C@H](CO)N1C[C@H](C)[C@@H](CN(C)Cc2ccc3c(c2)OCO3)Oc2ccc(NC(=O)Cn3cnnn3)cc2CC1=O | 13 µM (active) |  |  |  | 
10 | COC(=O)C[C@@H]1CC[C@@H]2[C@H](COC[C@@H](O)CN2C(=O)Nc2cccc(F)c2)O1 | 10 µM (active) |  |  |  | 
11 | O=C(c1cccc(F)c1)N1CC[C@@H]2[C@H]1c1cc(-c3cccc(F)c3)ccc1N[C@@H]2CO | 5.94 µM (active) |  |  |  | 
